Assay results taken from ChEMBL document CHEMBL6096675 (J Med Chem, 2025).

Experiments:
[1] = Plasma concentration in SCID mouse xenografted with human NCI-H838 cells at 10 mg/kg, iv measured after 168 hrs by LC-MS/MS analysis; type: ADME, organism-based; conditions: in vivo, iv, 10 mg/kg, 168 h
[2] = system: SK-MEL-28; assay: Antiproliferative activity against human SMARCA4-wild type SK-MEL-28 cells assessed as inhibition of cell growth measured after 7 days by WST-8 assay; type: functional; conditions: SK-MEL-28, 168 h, time 7 day
[3] = Plasma concentration in mouse xenografted with human H838 cells at 10 mg/kg, iv single dose measured after 168 hrs by LC-MS/MS analysis; type: ADME, organism-based, NCI-H838; conditions: in vivo

## Cc1ncsc1-c1ccc([C@H](CN2CCOCC2)NC(=O)[C@@H]2C[C@@H](O)CN2C(=O)[C@@H](n2cc([C@H]3CC[C@H](CN4CCC(c5ccc6c(c5)-n5c(nc(=O)c7c(Cl)cccc75)C65CCCCC5)CC4)CC3)nn2)C(C)(C)C)cc1
[1]
  Cp: Below_limit_of_detection
[2]
  GI50: > 10 µM
[3]
  Cp: Below_limit_of_detection
